According to PubChem BioAssay (NCI):
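Interpolation was linear, between the two tested concentrations surrounding the appropriate level; five concentrations were tested over 48 hours in 96-well plates. The concentration for full growth arrest is given as TGI.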

Key:
Assay in all cases: DTP human tumour cell line panel, 48 h
CAKI-1 renal = test system: CAKI-1 renal
DLD-1 colon = test system: DLD-1 colon
DMS 273 small cell lung = test system: DMS 273 small cell lung
HT29 colon = test system: HT29 colon
LXFL 529 NSCLC = test system: LXFL 529 NSCLC
M14 melanoma = test system: M14 melanoma
MCF7 breast = test system: MCF7 breast
SF-539 CNS = test system: SF-539 CNS
SK-MEL-2 melanoma = test system: SK-MEL-2 melanoma
SN12C renal = test system: SN12C renal

| Structure (SMILES) | TGI (CAKI-1 renal) | TGI (DLD-1 colon) | TGI (DMS 273 small cell lung) | TGI (HT29 colon) | TGI (LXFL 529 NSCLC) | TGI (M14 melanoma) | TGI (MCF7 breast) | TGI (SF-539 CNS) | TGI (SK-MEL-2 melanoma) | TGI (SN12C renal) |
| --- | --- | --- | --- | --- | --- | --- | --- | --- | --- | --- |
| CC1(C)C(=O)/C=C\C(=O)C(C)(C)C(=O)/C=C\C(=O)C(C)(C)C2=CC=C(O2)C(C)(C)C(=O)/C=C\C1=O | 7.91 µM | 3.61 µM | 10.1 µM | 8.45 µM | 6.14 µM | 5.63 µM | 39.8 µM | 17.7 µM | 25.5 µM | 14.1 µM |
| CCN(CC)C(=S)SS(C)(=O)=O | 57.1 µM | 33.3 µM | 36 µM | 31 µM | 30 µM | 32.1 µM |  | 43.7 µM | 33.2 µM | 29.9 µM |
